For one molecule, IC50 results are on record in article PMC6240685, “Strong Inhibitory Effect, Low Cytotoxicity and High Plasma Stability of Steroidal Inhibitors of N-Methyl-D-Aspartate Receptors With C-3 Amide Structural Motif” (Frontiers in Pharmacology, 2018).

The experiment relates to HepG2 cells. Briefly: Hepatotoxicity, XTT viability after 72 h. It is filed as cell-based. The conditions noted are these: Homo sapiens; 72 h, HepG2, 5.5 mM glucose; read-out: Hepatotoxicity IC50, 5.5 mM glucose. (In general: Formazan colour is commonly taken as a measure of viable cells.)

By IC50 is commonly meant the concentration needed to halve the response being measured. In the case of `C[C@@]12CCC[C@H]1[C@@H]1CC[C@@H]3C[C@H](NC(=O)[C@@H](N)CC(=O)O)CC[C@]3(C)[C@H]1CC2` [Compound 6, (S)-3-amino-4-(((3R,5R,8S,9S,10S,13S,14S)-10,13-dimethylhexadecahydro-1H-cyclopenta[a]phenanthren-3-yl)amino)-4-oxobutanoic acid], the IC50 is greater than 200 µM.
